Tests used:
[1] = Chemical stability in HBSS buffer (pH 7.4) / simulated gastric fluid; type: physicochemical; conditions: for chemical stability: chemical hydrolysis / HBSS buffer; for Percentage remaining: HBSS, 10 μM, 37° C.
Description: The chemical stability of prodrugs was evaluated using simulated gastric fluid (pH 1.2) and Hanks' Balanced Salt Solution (HBSS) buffer (pH 7.4). Briefly, prodrugs were spiked (10 μM) in respective solutions and incubated at 37° C. for 1 h. At predetermined time points (0, 30 and 60 min), aliquots of 100 μL were removed and diluted with 100 μL of water. Prodrug disappearance was monitored using the developed liquid chromatography and tandem mass spectrometry (LC/MS/MS) method described below.
(§1) For LC/MS/MS, prodrugs were separated with Thermo Scientific Accela UPLC system coupled to Accela open autosampler on an Agilent C18 (100×2.1 mm id) UPLC column. The autosampler was temperature controlled and operating at 10° C. The mobile phase used for the chromatographic separation was composed of acetonitrile/water containing 0.1% formic acid and was run at a flow rate of 0.5 mL/minute for 4.5 minutes using gradient elution. The column effluent was monitored using TSQ Vantage triple-quadrupole mass spectrometric detector, equipped with an electrospray probe set in the positive ionization mode. Samples were introduced into the ionization source through a heated nebulized probe (350° C.).
(§2) For quantification of compound remaining, disappearance of prodrugs was measured from ratio of peak areas of analyte to IS. Percentage remaining was calculated in the following manner: […]

[2] = In vivo pharmacokinetics in mice, peroral, bioanalysis method 1 (total prodrug exposure); conditions: oral dosing; for permeability in vivo: mice
Description: Blood was obtained via cardiac puncture and tissue dissected at 0 min, 15 min, 30 min, 1 h, 2 h, and 4 h post dose (n=3 per time point). Single time point studies were conducted at 30 min (N=3) following dosing. Plasma was harvested from blood by centrifugation. Mean concentration-time data was used for pharmacokinetic (PK) analysis. Non-compartmental-analysis module in WinNonlin® (version 5.3) was used to assess pharmacokinetic parameters. Peak plasma concentrations (Cmax) and time to Cmax (Tmax) were the observed values. Area under the curve (AUC) was calculated by log-linear (p.o.) trapezoidal rule to the end of sample collection (AUClast) and extrapolated to infinity (AUC0-∞) by dividing the last quantifiable concentration by the terminal disposition rate constant (ke). Terminal half-life (t1/2) was estimated from first order kinetics: t1/2=0.693/ke.
Briefly, prior to extraction, frozen samples were thawed on ice. For plasma extraction, 50 μL of the calibration standards or samples were transferred into silanized microcentrifuge tubes. Sample preparation involved a single liquid extraction by addition of 300 μL of methanol as extraction solution with internal standard (i.e., 5 μM of 2-PMSA in methanol), followed by vortexing for 30 s and then centrifugation at 12000 g for 10 min. Supernatant was transferred (˜250 μL) and evaporated to dryness at 40° C. under a gentle stream of nitrogen. The residue was reconstituted with 100 μL of derivatizing agent, n-butanol with 3N HCl, and samples were vortexed. The samples were heated at ˜60 OC in a shaking water bath for 30 min. At the end of 30 min, the derivatized samples were allowed to cool at room temperature and dried again for removal of derivatizing reagent, under a gentle stream of nitrogen. The residue was reconstituted in 100 μL of 30% acetonitrile in water v/v. The samples were vortexed and centrifuged again. ˜80 μL supernatant was transferred to a 250 μL polypropylene vial sealed with a Teflon cap and a volume of 10 μL was injected onto the ultra-performance liquid chromatography (UPLC) instrument for quantitative analysis. Chromatographic analysis was performed using an Accela™ ultra high-performance system consisting of an analytical pump, and an autosampler coupled with TSQ Vantage mass spectrometer (Thermo Fisher Scientific Inc., Waltham Mass.). […] The mobile phase used was composed of 0.1% formic acid in acetonitrile and 0.1% formic acid in H2O with gradient elution, starting with 20% (organic) linearly increasing to 65% up to 2.5 min, maintaining at 65% (2.5-3.5 min) and reequilibrating to 30% by 5 min. The total run time for each analyte was 5.0 min.

[3] = In vitro metabolic stability screen in plasma and liver subcellular fractions (results in words); type: in vitro ADME; conditions: 60 min incubation
Description: (§3) For metabolic stability, plasma (mouse, dog, monkey and human) and liver microsomes (mouse, dog, monkey and human) were used. For stability, prodrugs (10 μM) were spiked in each matrix and incubated in an orbital shaker at 37° C. At predetermined times (0, 30 and 60 min), 100 μL aliquots of the mixture in triplicate were removed and the reaction quenched by addition of three times the volume of ice cold acetonitrile spiked with the internal standard (losartan 5 μM). The samples were vortexed for 30 s and centrifuged 12000 g for 10 min. 50 μL supernatant diluted with 50 μL water was transferred to a 250 μL polypropylene vial sealed with a Teflon cap. Prodrug disappearance was monitored over time using a liquid chromatography and tandem mass spectrometry (LC/MS/MS) method as described below.
as §1
For quantification of compound remaining, disappearance of prodrugs was measured from ratio of peak areas of analyte to IS. Percentage remaining was calculated in the following manner:
In general, the prodrugs were screened by an in vitro metabolic stability screen, and if positive, followed by an in vivo single time point pharmacokinetic study, and in select cases, an in vivo full time course pharmacokinetic study (FIG. 3). In this Example, the four acidic functional groups in 2-PMPA were systematically capped. The carboxylic acids were first masked with simple alkyl esters (Compounds 1, 2, and 3). In vitro chemical and metabolic stability of the prodrugs then were conducted, following 60 min incubation in plasma stability screens for prodrugs.

[4] = Metabolic stability in mouse plasma; type: in vitro ADME; conditions: 10 μM, 37° C.
Description: as §3, §1, §2

[5] = Metabolic stability in mouse liver S9; type: in vitro ADME; conditions: Mouse S9, 10 μM, 37° C.
[6] = Metabolic stability in mouse liver microsomes; type: in vitro ADME; conditions: 10 μM, 37° C.
Description: as §3, §1, §2

[7] = Metabolic stability in human plasma; type: in vitro ADME; conditions: 10 μM, 37° C.
Description: as §3, §1, §2

[8] = Metabolic stability in human liver microsomes; type: in vitro ADME; conditions: 10 μM, 37° C.
Description: as §3, §1, §2

Row | chemical stability [1] | Percentage remaining ([4]; 0 min) [%] | Percentage remaining ([4]; 30 min) [%] | Percentage remaining ([4]; 60 min) [%] | Percentage remaining ([6]; 0 min) [%] | Percentage remaining ([6]; 30 min) [%] | Percentage remaining ([6]; 60 min) [%] | SMILES | further results
1 | chemical instability |  |  |  |  |  |  | CC(C)OC(=O)OCOP(=O)(CC(CCC(=O)O)C(=O)O)OCOC(=O)OC(C)C (stereo not shown) [Compound 4] | 
2 | chemical instability |  |  |  |  |  |  | CC(C)(C)C(=O)OCOP(=O)(CC(CCC(=O)O)C(=O)O)OCOC(=O)C(C)(C)C (stereo not shown) [Compound 5] | 
3 |  |  |  |  |  |  |  | COC(=O)C(CCC(=O)O)CP(=O)(OCOC(=O)C(C)(C)C)OCOC(=O)C(C)(C)C (stereo not shown) [Compound 8, 4-({Bis[(pivaloyloxy)methoxy]phosphoryl}methyl)-5-methoxy-5-oxopentanoic acid] | oral availability of prodrug [2]: good oral availability
4 |  |  |  |  |  |  |  | COC(=O)C(CCC(=O)O)CP(=O)(O)O (stereo not shown) [Compound 9] | oral availability of prodrug [2]: good oral availability
5 | sufficient chemical stability |  |  |  |  |  |  | COC(=O)CCC(CP(=O)(OCOC(=O)C(C)(C)C)OCOC(=O)C(C)(C)C)C(=O)OCOC(=O)C(C)(C)C (stereo not shown) [Compound 11] | 
6 | sufficient chemical stability |  |  |  |  |  |  | CCCCCCCCCCCCCCCCOCCCOP(=O)(CC(CCC(=O)O)C(=O)O)OCCCOCCCCCCCCCCCCCCCC (stereo not shown) [Compound 12, 2-((Bis(3-(hexadecyloxy)propoxy)phosphoryl)methyl)pentanedioic acid] | 
7 |  | 100 | 2 | 1 | 100 | 99 | 100 | CCOCCOCCOCCOCCOCCOCCOP(=O)(CC(CCC(=O)OC)C(=O)OC)OCCOCCOCCOCCOCCOCCOCC (stereo not shown) [Compound 13, Dimethyl 2-((bis((3,6,9,12,15,18-hexaoxaicosyl)oxy)phosphoryl)methyl)pentanedioate] | in vitro metabolic stability [3]: too stable in some of the samples; Percentage remaining ([1]; 0 min): 100%; Percentage remaining ([1]; 30 min): 99%; Percentage remaining ([1]; 60 min): 101%; Percentage remaining ([5]; 0 min): 100%; Percentage remaining ([5]; 30 min): 106%; Percentage remaining ([5]; 60 min): 100%
8 | fall apart easily even in HBSS buffer | 100 | 0 | 0 | 100 | 2 | 0 | COC(=O)CCC(CP(=O)(OCOC(=O)C(C)(C)C)OCOC(=O)C(C)(C)C)C(=O)OC (stereo not shown) [Compound 14] | permeability in vivo [2]: most permeable; Percentage remaining ([1]; 0 min): 100%; Percentage remaining ([1]; 30 min): 46%; Percentage remaining ([1]; 60 min): 21%; Percentage remaining ([5]; 0 min): 100%; Percentage remaining ([5]; 30 min): 1%; Percentage remaining ([5]; 60 min): 0%
9 | stable in HBSS buffer | 100 | 2 | 1 | 100 | 2 | 0.1 | CCOC(=O)[C@H](Cc1ccccc1)NP(=O)(CC(CCC(=O)OC)C(=O)OC)N[C@@H](Cc1ccccc1)C(=O)OCC (stereo partly drawn) [Compound 17, Dimethyl 2-((bis(((S)-1-ethoxy-1-oxo-3-phenylpropan-2-yl)amino)phosphoryl)methyl)pentanedioate] | Percentage remaining ([1]; 0 min): 100%; Percentage remaining ([1]; 30 min): 93%; Percentage remaining ([1]; 60 min): 93%; Percentage remaining ([5]; 0 min): 100%; Percentage remaining ([5]; 30 min): 0%; Percentage remaining ([5]; 60 min): 0.1%
10 |  |  |  |  |  |  |  | CCCCOC(=O)c1ccccc1OP(=O)(CC(CCC(=O)O)C(=O)OC)Oc1ccccc1C(=O)OCCCC (stereo not shown) [Compound 21, 4-({Bis[2-(butoxycarbonyl)phenoxy]phosphoryl}methyl)-5-methoxy-5-oxopentanoic acid] | permeability in vivo [2]: did not show a high permeability in vivo
11 |  |  |  |  |  |  |  | CCCCCCCCCCOP(=O)(CC(CCC(=O)O)C(=O)OC)OCCCCCCCCCC (stereo not shown) [Compound 22, 4-{[Bis(decyloxy)phosphoryl]methyl}-5-methoxy-5-oxopentanoic acid] | permeability in vivo [2]: did not show a high permeability in vivo
12 |  | 100 | 0 | 0 | 100 | 49 | 22 | CC(C)OC(=O)OCOP(=O)(CC(CCC(=O)O)C(=O)OCC(=O)N(C)C)OCOC(=O)OC(C)C (stereo not shown) [Compound 25] | Percentage remaining ([7]; 0 min): 100%; Percentage remaining ([7]; 30 min): 109%; Percentage remaining ([7]; 60 min): 76%; Percentage remaining ([8]; 0 min): 100%; Percentage remaining ([8]; 30 min): 80%; Percentage remaining ([8]; 60 min): 61%
13 |  | 100 | 3 | 1 | 100 | 86 | 68 | CC(C)OC(=O)OC(C)OP(=O)(CC(CCC(=O)O)C(=O)OCC(=O)N(C)C)OC(C)OC(=O)OC(C)C (stereo not shown) [Compound 26] | Percentage remaining ([7]; 0 min): 100%; Percentage remaining ([7]; 30 min): 98%; Percentage remaining ([7]; 60 min): 92%; Percentage remaining ([8]; 0 min): 100%; Percentage remaining ([8]; 30 min): 92%; Percentage remaining ([8]; 60 min): 81%

Row | SMILES | chemical stability [1] | Percentage remaining ([4]; 0 min) [%] | Percentage remaining ([4]; 30 min) [%] | Percentage remaining ([4]; 60 min) [%] | Percentage remaining ([6]; 0 min) [%] | Percentage remaining ([6]; 30 min) [%] | Percentage remaining ([6]; 60 min) [%] | further results
14 | CCCCOC(=O)c1ccccc1OP(=O)(CC(CCC(=O)OC)C(=O)OC)Oc1ccccc1C(=O)OCCCC (stereo not shown) [Compound 16, Dimethyl 2-({bis[2-(butoxycarbonyl)phenoxy]phosphoryl}methyl)pentanedioate] | stable in HBSS buffer | 100 | 3 | 1 | 100 | 3 | 2 | Percentage remaining ([1]; 0 min): 100%; Percentage remaining ([1]; 30 min): 100%; Percentage remaining ([1]; 60 min): 95%; Percentage remaining ([5]; 0 min): 100%; Percentage remaining ([5]; 30 min): 1%; Percentage remaining ([5]; 60 min): 2%

Source: patent US9988407B2, “Prodrugs of prostate specific membrane antigen (PSMA) inhibitor” (THE JOHNS HOPKINS UNIVERSITY, priority 2014, dated 2018)
